Results published in patent publication US7163952B2, “Azole compound and medicinal use thereof” (Japan Tobacco Inc., priority 2001, dated 2007).
Where a name gives a salt, the structure may show the parent alone.

**Q.** Which melting point does the source give for `O=C(O)c1cccc(Nc2nc(-c3ccc(NC(=O)c4ccc(C5CCCCC5)cc4)cc3)cs2)c1` [Example 27, 3-(4-(4-(4-cyclohexylbenzoylamino)phenyl)-2-thiazolylamino)benzoic acid] here?
**A.** 230 °C (dec.)

**Q.** Which melting point does the source give for `CC(C)N(c1ccc(C(=O)O)c(Cl)c1)c1nc(-c2ccc(NC(=O)c3ccc(C4CCCCC4)cc3)cc2)cs1` [Example 38, 2-chloro-4-(N-(4-(4-(4-cyclohexylbenzoylamino)phenyl)-2-thiazolyl)-N-isopropylamino)benzoic acid] here?
**A.** 220 °C (dec.)

**Q.** With `CC(C)N(c1ccc(C(=O)O)cc1)c1nc(-c2ccc(OCc3ccc(C4CCCCC4)cc3)cc2)cs1` [Example 24, 4-(N-(4-(4-(4-cyclohexylbenzyloxy)phenyl)-2-thiazolyl)-N-isopropylamino)benzoic acid] as the molecule, how does the melting point read?
**A.** 238 to 240 °C

**Q.** With `O=C(O)CN(c1ccc(C(=O)O)cc1)c1nc(-c2ccc(NC(=O)c3ccc(C4CCCCC4)cc3)cc2)cs1` [Example 18, 4-(N-carboxymethyl-N-(4-(4-(4-cyclohexylbenzoylamino)phenyl)-2-thiazolyl)amino)benzoic acid] as the molecule, how does the melting point read?
**A.** 230 °C (dec.)

**Q.** With `O=C(O)c1ccc(N(Cc2ccc(Cl)c(Cl)c2)c2nc(-c3cc(Cl)ccc3OCc3ccccc3)cs2)cc1` [Example 167, 4-(N-(4-(2-benzyloxy-5-chlorophenyl)-2-thiazolyl)-N-(3,4-dichlorobenzyl)amino)benzoic acid] as the molecule, how does the melting point read?
**A.** 196 to 198 °C

**Q.** With `CC(C)N(Cc1cccc(-c2nnn[nH]2)c1)c1nc(-c2ccc(OCc3ccc(C4CCCCC4)cc3)cc2)cs1` [Example 80, N-(4-(4-(4-cyclohexylbenzyloxy)phenyl)-2-thiazolyl)-N-isopropyl-(3-(1H-tetrazol-5-yl)benzyl)amine] as the molecule, how does the melting point read?
**A.** 221 to 222 °C

**Q.** For `CN(Cc1ccc(C(=O)O)cc1)c1nc(-c2ccc(CN3CCN(C(=O)OCc4ccccc4)CC3)cc2)cs1` [Example 243, benzyl 4-(4-(2-(N-(4-carboxybenzyl)-N-methylamino)-4-thiazolyl)benzyl)-piperazine-1-carboxylate], which melting point is on record?
**A.** 122 to 127 °C

**Q.** Which melting point does the source give for `CC(C)N(c1ccc(C(=O)O)c(Cl)c1)c1nc(-c2ccc(NC(=O)c3ccc(N4CCCCC4)cc3)cc2)cs1.Cl` here?
**A.** 220 °C (dec.)

**Q.** For `CC(C)N(Cc1ccc(-c2nnn[nH]2)cc1)c1nc(-c2ccc(OCc3ccc(C4CCCCC4)cc3)cc2)cs1` [Example 79, N-(4-(4-(4-cyclohexylbenzyloxy)phenyl)-2-thiazolyl)-N-isopropyl-(4-(1H-tetrazol-5-yl)benzyl)amine], which melting point is on record?
**A.** 238 to 239 °C

**Q.** For `O=C(O)CN(c1ccc(C(=O)O)cc1)c1nc(-c2ccc(NC(=O)c3ccccc3)cc2)cs1` [Example 16, 4-(N-(4-(4-benzoylaminophenyl)-2-thiazolyl)-N-carboxymethylamino)benzoic acid], which melting point is on record?
**A.** 210 °C (dec.)

**Q.** For `CN(CCc1ccc(Cl)c(Cl)c1)c1ccc(-c2csc(N(C)Cc3ccc(C(=O)O)cc3)n2)cc1` [Example 224, 4-((N-(4-(4-(N-(2-(3,4-dichlorophenyl)ethyl)-N-methylamino)phenyl)-2-thiazolyl)-N-methylamino)methyl)benzoic acid], which melting point is on record?
**A.** 151 to 152 °C

**Q.** Which melting point does the source give for `CN(Cc1ccc(C(=O)OC2OC(=O)c3ccccc32)cc1)c1nc(-c2ccc(OCc3ccc(C4CCCCC4)cc3)cc2)cs1` (centres unmarked) [Example 248, 3-oxo-1,3-dihydroisobenzofuran-1-yl 4-((N-(4-(4-(4-cyclohexylbenzyloxy)phenyl)-2-thiazolyl)-N-methylamino)methyl)benzoate] here?
**A.** 104 to 105 °C

**Q.** For `CCOC(=O)OC(C)OC(=O)c1ccc(CN(C)c2nc(-c3ccc(OCc4ccc(C5CCCCC5)cc4)cc3)cs2)cc1` (centres unmarked) [Example 269, 1-ethoxycarbonyloxyethyl 4-((N-(4-(4-(4-cyclohexylbenzyloxy)phenyl)-2-thiazolyl)-N-methylamino)methyl)benzoate], which melting point is on record?
**A.** 99 to 101 °C

**Q.** With `CN(Cc1ccc(C(C)(C)C)cc1)c1ccc(-c2csc(N(C)Cc3ccc(C(=O)O)cc3)n2)cc1` [Example 233, 4-((N-(4-(4-(N-(4-tert-butylbenzyl)-N-methylamino)phenyl)-2-thiazolyl)-N-methylamino)methyl)benzoic acid] as the molecule, how does the melting point read?
**A.** 166 to 167 °C

**Q.** Which melting point does the source give for `CC(C)N(c1ccc(C(=O)O)cc1)c1nc(-c2ccc(OCc3ccc(Cl)c(Cl)c3)cc2)cs1` [Example 96, 4-(N-(4-(4-(3,4-dichlorobenzyloxy)phenyl)-2-thiazolyl)-N-isopropylamino)benzoic acid] here?
**A.** 236 to 238 °C

**Q.** Which melting point does the source give for `CC(C)(c1ccc(C(=O)O)cc1)c1nc(-c2ccc(OCc3ccc(Cl)c(Cl)c3)cc2)cs1` [Example 90, 4-(1-(4-(4-(3,4-dichlorobenzyloxy)phenyl)-2-thiazolyl)-1-methylethyl)benzoic acid] here?
**A.** 170 to 172 °C

**Q.** For `O=C(O)c1cc(Cc2nc(-c3cc(Cl)ccc3OCc3ccccc3)cs2)ccc1O` [Example 158, 5-(4-(2-benzyloxy-5-chlorophenyl)-2-thiazolylmethyl)-2-hydroxybenzoic acid], which melting point is on record?
**A.** 212 to 213 °C

**Q.** Which melting point does the source give for `O=C(O)c1ccc(COc2ccc(-c3csc(Cc4ccc(C(=O)O)cc4)n3)cc2)cc1` [Example 49, 4-(4-(4-(4-carboxybenzyloxy)phenyl)-2-thiazolylmethyl)benzoic acid] here?
**A.** 270 °C (dec.)

**Q.** With `O=C(O)c1ccc(Nc2nc(-c3nc4cc(OCc5ccc(Cl)c(Cl)c5)ccc4[nH]3)cs2)cc1` (as salt: hydrochloride) [Example 186, 4-(4-(5-(3,4-dichlorobenzyloxy)-2-benzoimidazolyl)-2-thiazolylamino)benzoic acid hydrochloride] as the molecule, how does the melting point read?
**A.** 220 °C

**Q.** Which melting point does the source give for `CC(C)N(c1ccc(C(=O)O)cc1)c1nc(-c2ccc(NC(=O)c3ccc(N4CCOCC4)cc3)cc2)cs1.Cl` here?
**A.** 230 °C (dec.)

**Q.** With `CCC(CC)c1ccc(CN(C)c2ccc(-c3csc(N(C)Cc4ccc(C(=O)O)cc4)n3)cc2)cc1` [Example 241, 4-((N-(4-(4-(N-(4-(1-ethylpropyl)benzyl)-N-methylamino)phenyl)-2-thiazolyl)-N-methylamino)methyl)benzoic acid] as the molecule, how does the melting point read?
**A.** 147 to 148 °C

**Q.** For `CC(C)(C)c1ccc(C(=O)Nc2ccc(-c3csc(Nc4ccc(C(=O)O)cc4)n3)cc2)cc1` [Example 5, 4-(4-(4-(4-tert-butylbenzoylamino)phenyl)-2-thiazolylamino)benzoic acid], which melting point is on record?
**A.** 250 °C (dec.)

**Q.** Which melting point does the source give for `CN(Cc1ccc([C@H]2CCC[C@H](O)C2)cc1)c1ccc(-c2csc(N(C)Cc3ccc(C(=O)O)cc3)n2)cc1` (relative stereo) [Example 206, trans-4-((N-(4-(4-(N-(4-(3-hydroxycyclohexyl)benzyl)-N-methylamino)phenyl)-2-thiazolyl)-N-methylamino)methyl)benzoic acid] here?
**A.** 159 to 161 °C

**Q.** With `CC1CC(C)CN(c2ccc(C(=O)Nc3ccc(-c4csc(N(c5ccc(C(=O)O)cc5)C(C)C)n4)cc3)cc2)C1.Cl` (centres unmarked) as the molecule, how does the melting point read?
**A.** 152 to 160 °C

**Q.** For `O=C(O)c1ccc(C2(c3nc(-c4ccc(OCc5ccc(C6CCCCC6)cc5)cc4)cs3)CCOCC2)cc1` [Example 101, 4-(4-(4-(4-(4-cyclohexylbenzyloxy)phenyl)-2-thiazolyl)tetrahydropyran-4-yl)benzoic acid], which melting point is on record?
**A.** 230 °C (dec.)

**Q.** For `Cc1nc(N(C)Cc2ccc(C3CCCCC3)cc2)sc1-c1csc(N(C)Cc2ccc(C(=O)O)cc2)n1` [Example 227, 4-((N-(2′-(N-(4-cyclohexylbenzyl)-N-methylamino)-4′-methyl-4,5′-bithiazolyl-2-yl)-N-methylamino)methyl)benzoic acid], which melting point is on record?
**A.** 172 to 173 °C

**Q.** For `O=C(O)c1ccc(CNc2nc(-c3cc(Cl)ccc3OCc3ccccc3)cs2)cc1` [Example 162, 4-((4-(2-benzyloxy-5-chlorophenyl)-2-thiazolylamino)methyl)benzoic acid], which melting point is on record?
**A.** 210 to 211 °C

**Q.** For `Cc1oc(=O)oc1COC(=O)c1ccc(CN(C)c2nc(-c3ccc(OCc4ccc(C5CCCCC5)cc4)cc3)cs2)cc1` [Example 273, 5-methyl-2-oxo-1,3-dioxl-4-ylmethyl 4-((N-(4-(4-(4-cyclohexylbenzyloxy)phenyl)-2-thiazolyl)-N-methylamino)methyl)benzoate], which melting point is on record?
**A.** 87 to 92 °C

**Q.** For `CC(C)N(c1ccc(C(=O)O)cc1)c1nc(-c2ccc(NC(=O)c3ccc(C4CCCCC4)cc3)cc2)cs1` [Example 10, 4-(N-(4-(4-(4-cyclohexylbenzoylamino)phenyl)-2-thiazolyl)-N-isopropylamino)benzoic acid], which melting point is on record?
**A.** 230 °C (dec.)

**Q.** Which melting point does the source give for `CC(C)N(c1ccc(C(=O)O)c(Cl)c1)c1nc(-c2ccc(NC(=O)c3ccc(N4CCN(C)CC4)cc3)cc2)cs1` [Example 41, 2-chloro-4-(N-isopropyl-N-(4-(4-(4-(4-methyl-1-piperazinyl)benzoylamino)phenyl)-2-thiazolyl)amino)benzoic acid] here?
**A.** 220 °C (dec.)

**Q.** With `CCN(c1ccc(C(=O)O)cc1)c1nc(-c2ccc(OCc3ccc(C4CCCCC4)cc3)cc2)cs1` [Example 23, 4-(N-(4-(4-(4-cyclohexylbenzyloxy)phenyl)-2-thiazolyl)-N-ethylamino)benzoic acid] as the molecule, how does the melting point read?
**A.** 239 to 247 °C

**Q.** For `O=C(O)c1ccc(N(CC2CCCCC2)c2nc(-c3nc4ccc(OCc5ccc(F)c(F)c5)cc4o3)cs2)cc1` [Example 190, 4-(N-cyclohexylmethyl-N-(4-(6-(3,4-difluorobenzyloxy)-2-benzooxazolyl)-2-thiazolyl)amino)benzoic acid], which melting point is on record?
**A.** 228 to 230 °C

**Q.** For `CN(c1ccc(C(=O)O)cc1)c1nc(-c2ccc(OCc3ccc(Cl)c(Cl)c3)cc2)cs1` [Example 89, 4-(N-(4-(4-(3,4-dichlorobenzyloxy)phenyl)-2-thiazolyl)-N-methylamino)benzoic acid], which melting point is on record?
**A.** 230 °C (dec.)

**Q.** For `CN(Cc1ccc(C2CCCCC2)cc1)c1ccc(-c2csc(N(C)Cc3cccc(C(=O)O)c3)n2)cc1` [Example 204, 3-((N-(4-(4-(N-(4-cyclohexylbenzyl)-N-methylamino)phenyl)-2-thiazolyl)-N-methylamino)methyl)benzoic acid], which melting point is on record?
**A.** 183 °C (dec.)

**Q.** With `CN(C)c1ccc(CCN(C)c2ccc(-c3csc(N(C)Cc4ccc(C(=O)O)cc4)n3)cc2)cc1` [Example 237, 4-((N-(4-(4-(N-(2-(4-dimethylaminophenyl)ethyl)-N-methylamino)phenyl)-2-thiazolyl)-N-methylamino)methyl)benzoic acid] as the molecule, how does the melting point read?
**A.** 164 to 167 °C
